From ChEMBL document CHEMBL1268945, “Sequential cytotoxicity: a theory examined using a series of 3,5-bis(benzylidene)-1-diethylphosphono-4-oxopiperidines and related phosphonic acids” (Bioorg Med Chem Lett, 2010)
Calls of active or inactive are those of the source. The calls are words filed in the database; no cut-off is given here.

system: HSC-2; test: Induction of apoptosis in human HSC2 cells assessed as activation of caspase 3 after 6 hrs; assay type: functional, cell-based

In the case of CCOP(=O)(OCC)N1C/C(=C\c2ccc(OC)cc2)C(=O)/C(=C/c2ccc(OC)cc2)C1, the Activity is reported as “inactive”.

system: HSC-3; test: Selectivity index, ratio of CC50 for normal cells to CC50 for human HSC3 cells; assay type: functional

Point of comparison: CCOP(=O)(OCC)N1C/C(=C\c2ccc(Cl)cc2)C(=O)/C(=C/c2ccc(Cl)cc2)C1, “Selectivity Index” value 2. Against it:
- CCOP(=O)(OCC)N1C/C(=C\c2ccccc2[N+](=O)[O-])C(=O)/C(=C/c2ccccc2[N+](=O)[O-])C1 — higher, 12
- COc1cc(/C=C2\CN(P(=O)(O)O)C/C(=C\c3cc(OC)c(OC)c(OC)c3)C2=O)cc(OC)c1OC — higher, 3
- CCOP(=O)(OCC)N1C/C(=C\c2ccc(OC)cc2)C(=O)/C(=C/c2ccc(OC)cc2)C1 — higher, 71

system: HL-60; test: Selectivity index, ratio of CC50 for normal cells to CC50 for human HL60 cells; assay type: functional

Point of comparison: CCOP(=O)(OCC)N1C/C(=C\c2ccc(OC)cc2)C(=O)/C(=C/c2ccc(OC)cc2)C1, “Selectivity Index” value 25. Against it:
- CCOP(=O)(OCC)N1C/C(=C\c2ccccc2[N+](=O)[O-])C(=O)/C(=C/c2ccccc2[N+](=O)[O-])C1 — higher, 37
- CCOP(=O)(OCC)N1C/C(=C\c2ccc(Cl)cc2)C(=O)/C(=C/c2ccc(Cl)cc2)C1 — lower, 6.7
- COc1cc(/C=C2\CN(P(=O)(O)O)C/C(=C\c3cc(OC)c(OC)c(OC)c3)C2=O)cc(OC)c1OC — lower, 12

system: not listed separately; test: Cytotoxicity against human HPLF cells; assay type: cell-based

Point of comparison: COc1cc(/C=C2\CN(P(=O)(O)O)C/C(=C\c3cc(OC)c(OC)c(OC)c3)C2=O)cc(OC)c1OC, CC50 1 µM. Against it:
- CCOP(=O)(OCC)N1C/C(=C\c2ccccc2[N+](=O)[O-])C(=O)/C(=C/c2ccccc2[N+](=O)[O-])C1 — 15-fold higher, 15 µM
- CCOP(=O)(OCC)N1C/C(=C\c2ccc(Cl)cc2)C(=O)/C(=C/c2ccc(Cl)cc2)C1 — 4.8-fold higher, 4.8 µM
- CCOP(=O)(OCC)N1C/C(=C\c2ccc(OC)cc2)C(=O)/C(=C/c2ccc(OC)cc2)C1 — 46-fold higher, 46 µM

system: HSC-4; test: Selectivity index, ratio of CC50 for normal cells to CC50 for human HSC4 cells; assay type: functional

Point of comparison: COc1cc(/C=C2\CN(P(=O)(O)O)C/C(=C\c3cc(OC)c(OC)c(OC)c3)C2=O)cc(OC)c1OC, “Selectivity Index” value 6.7. Against it:
- CCOP(=O)(OCC)N1C/C(=C\c2ccccc2[N+](=O)[O-])C(=O)/C(=C/c2ccccc2[N+](=O)[O-])C1 — higher, 7.8
- CCOP(=O)(OCC)N1C/C(=C\c2ccc(Cl)cc2)C(=O)/C(=C/c2ccc(Cl)cc2)C1 — lower, 6.3
- CCOP(=O)(OCC)N1C/C(=C\c2ccc(OC)cc2)C(=O)/C(=C/c2ccc(OC)cc2)C1 — higher, 36

system: HSC-2; test: Cytotoxicity against human HSC2 cells; assay type: functional

Point of comparison: COc1cc(/C=C2\CN(P(=O)(O)O)C/C(=C\c3cc(OC)c(OC)c(OC)c3)C2=O)cc(OC)c1OC, CC50 0.13 µM. Against it:
- CCOP(=O)(OCC)N1C/C(=C\c2ccccc2[N+](=O)[O-])C(=O)/C(=C/c2ccccc2[N+](=O)[O-])C1 — 12-fold higher, 1.6 µM
- CCOP(=O)(OCC)N1C/C(=C\c2ccc(Cl)cc2)C(=O)/C(=C/c2ccc(Cl)cc2)C1 — 12-fold higher, 1.5 µM
- CCOP(=O)(OCC)N1C/C(=C\c2ccc(OC)cc2)C(=O)/C(=C/c2ccc(OC)cc2)C1 — 7.1-fold higher, 0.92 µM

system: HSC-4; test: Induction of internucleosomal DNA fragmentation in human HSC4 cells after 6 hrs; assay type: functional, cell-based

In the case of CCOP(=O)(OCC)N1C/C(=C\c2ccc(OC)cc2)C(=O)/C(=C/c2ccc(OC)cc2)C1, the Activity is reported as “inactive”.

system: HSC-3; test: Cytotoxicity against human HSC3 cells; assay type: functional

Point of comparison: CCOP(=O)(OCC)N1C/C(=C\c2ccc(OC)cc2)C(=O)/C(=C/c2ccc(OC)cc2)C1, CC50 0.66 µM. Against it:
- CCOP(=O)(OCC)N1C/C(=C\c2ccccc2[N+](=O)[O-])C(=O)/C(=C/c2ccccc2[N+](=O)[O-])C1 — 1.8-fold higher, 1.2 µM
- CCOP(=O)(OCC)N1C/C(=C\c2ccc(Cl)cc2)C(=O)/C(=C/c2ccc(Cl)cc2)C1 — 3-fold higher, 2 µM
- COc1cc(/C=C2\CN(P(=O)(O)O)C/C(=C\c3cc(OC)c(OC)c(OC)c3)C2=O)cc(OC)c1OC — 2.4-fold lower, 0.27 µM

system: HL-60; test: Induction of internucleosomal DNA fragmentation in human HL60 cells after 6 hrs; assay type: functional, cell-based

In the case of CCOP(=O)(OCC)N1C/C(=C\c2ccc(OC)cc2)C(=O)/C(=C/c2ccc(OC)cc2)C1, the Activity is reported as “Active”.

system: HL-60; test: Induction of apoptosis in human HL60 cells assessed as activation of caspase 3 after 6 hrs; assay type: functional, cell-based

In the case of CCOP(=O)(OCC)N1C/C(=C\c2ccc(OC)cc2)C(=O)/C(=C/c2ccc(OC)cc2)C1, the Activity is reported as “Dose-dependent effect”.

system: HSC-2; test: Selectivity index, ratio of CC50 for normal cells to CC50 for human HSC2 cells; assay type: functional

Point of comparison: CCOP(=O)(OCC)N1C/C(=C\c2ccc(OC)cc2)C(=O)/C(=C/c2ccc(OC)cc2)C1, “Selectivity Index” value 51. Against it:
- CCOP(=O)(OCC)N1C/C(=C\c2ccccc2[N+](=O)[O-])C(=O)/C(=C/c2ccccc2[N+](=O)[O-])C1 — lower, 8.8
- CCOP(=O)(OCC)N1C/C(=C\c2ccc(Cl)cc2)C(=O)/C(=C/c2ccc(Cl)cc2)C1 — lower, 2.7
- COc1cc(/C=C2\CN(P(=O)(O)O)C/C(=C\c3cc(OC)c(OC)c(OC)c3)C2=O)cc(OC)c1OC — lower, 6.2

system: not listed separately; test: Cytotoxicity against human HPC cells; assay type: cell-based

Point of comparison: CCOP(=O)(OCC)N1C/C(=C\c2ccccc2[N+](=O)[O-])C(=O)/C(=C/c2ccccc2[N+](=O)[O-])C1, CC50 8.3 µM. Against it:
- CCOP(=O)(OCC)N1C/C(=C\c2ccc(Cl)cc2)C(=O)/C(=C/c2ccc(Cl)cc2)C1 — 3-fold lower, 2.8 µM
- COc1cc(/C=C2\CN(P(=O)(O)O)C/C(=C\c3cc(OC)c(OC)c(OC)c3)C2=O)cc(OC)c1OC — 14-fold lower, 0.59 µM
- CCOP(=O)(OCC)N1C/C(=C\c2ccc(OC)cc2)C(=O)/C(=C/c2ccc(OC)cc2)C1 — 4.9-fold higher, 41 µM

system: HL-60; test: Cytotoxicity against human HL60 cells; assay type: functional

Point of comparison: COc1cc(/C=C2\CN(P(=O)(O)O)C/C(=C\c3cc(OC)c(OC)c(OC)c3)C2=O)cc(OC)c1OC, CC50 0.06 µM. Against it:
- CCOP(=O)(OCC)N1C/C(=C\c2ccccc2[N+](=O)[O-])C(=O)/C(=C/c2ccccc2[N+](=O)[O-])C1 — 6.3-fold higher, 0.38 µM
- CCOP(=O)(OCC)N1C/C(=C\c2ccc(Cl)cc2)C(=O)/C(=C/c2ccc(Cl)cc2)C1 — 10-fold higher, 0.6 µM
- CCOP(=O)(OCC)N1C/C(=C\c2ccc(OC)cc2)C(=O)/C(=C/c2ccc(OC)cc2)C1 — 32-fold higher, 1.9 µM

system: not listed separately; test: Cytotoxicity against human HGF cells; assay type: cell-based

Point of comparison: CCOP(=O)(OCC)N1C/C(=C\c2ccc(Cl)cc2)C(=O)/C(=C/c2ccc(Cl)cc2)C1, CC50 4.3 µM. Against it:
- CCOP(=O)(OCC)N1C/C(=C\c2ccccc2[N+](=O)[O-])C(=O)/C(=C/c2ccccc2[N+](=O)[O-])C1 — 4.2-fold higher, 18 µM
- COc1cc(/C=C2\CN(P(=O)(O)O)C/C(=C\c3cc(OC)c(OC)c(OC)c3)C2=O)cc(OC)c1OC — 4.9-fold lower, 0.88 µM
- CCOP(=O)(OCC)N1C/C(=C\c2ccc(OC)cc2)C(=O)/C(=C/c2ccc(OC)cc2)C1 — 12-fold higher, 53 µM

system: HSC-4; test: Cytotoxicity against human HSC4 cells; assay type: functional

Point of comparison: CCOP(=O)(OCC)N1C/C(=C\c2ccccc2[N+](=O)[O-])C(=O)/C(=C/c2ccccc2[N+](=O)[O-])C1, CC50 1.8 µM. Against it:
- CCOP(=O)(OCC)N1C/C(=C\c2ccc(Cl)cc2)C(=O)/C(=C/c2ccc(Cl)cc2)C1 — 2.8-fold lower, 0.64 µM
- COc1cc(/C=C2\CN(P(=O)(O)O)C/C(=C\c3cc(OC)c(OC)c(OC)c3)C2=O)cc(OC)c1OC — 15-fold lower, 0.12 µM
- CCOP(=O)(OCC)N1C/C(=C\c2ccc(OC)cc2)C(=O)/C(=C/c2ccc(OC)cc2)C1 — within 1.5-fold, 1.3 µM

system: HSC-2; test: Induction of internucleosomal DNA fragmentation in human HSC2 cells after 6 hrs; assay type: functional, cell-based

In the case of CCOP(=O)(OCC)N1C/C(=C\c2ccc(OC)cc2)C(=O)/C(=C/c2ccc(OC)cc2)C1, the Activity is reported as “inactive”.
